{
  "source": "patent US20140323306A1",
  "about": "“Substituted 1,2,5-Oxadiazole Compounds and Their Use as Herbicides” (BASF SE, priority 2011, published 2014)",
  "test_system": "CHEAL",
  "assay": "Greenhouse herbicidal test, post-emergence treatment",
  "format": "in vivo, Chenopodium album",
  "conditions": "post-emergence method, application rate 0.25 kg/ha; scale from 0 to 100",
  "text": "The seeds of the test plants were shown separately for each species. For the post-emergence treatment, the test plants were first grown to a height of 3 to 15 cm, depending on the plant habit, and only then treated with the active ingredients which had been suspended or emulsified in water. For this purpose, the test plants were either shown directly and grown in the same containers, or they were first grown separately as seedlings and transplanted into the test containers a few days prior to treatment. Depending on the species, the plants were kept at 10-25° C. or 20-35° C. The test period extended over 2 to 4 weeks. During this time, the plants were tended, and their response to the individual treatments was evaluated. Evaluation was carried out using a scale from 0 to 100. 100 means no emergence of the plants, or complete destruction of at least the aerial moieties, and 0 means no damage, or normal course of growth. A good herbicidal activity is given at values of at least 70 and a very good herbicidal activity is given at values of at least 85. The plants used in the greenhouse experiments belonged to the following species: [table]",
  "data": [
    {"smiles": "Cc1nonc1NC(=O)c1c(Cl)cc(Cl)cc1Cl", "note": "[I′.A-2, 2,4,6-trichloro-N-(4-methyl-1,2,5-oxadiazol-3-yl)benzamide]", "values": [
      {"measurement": "herbicidal activity against CHEAL", "result": "very good (a very good herbicidal activity is given at values of at least 85)"}
    ]}
  ]
}
